Read-outs that look alike come from different tables or passages of the source.
Experiments:
[1] = molecular target: CYP2E1 (Homo sapiens (Human), UniProt P05181); assay: CYP2E1 Vivid blue substrate O-dealkylation inhibition; format: biochemical
[2] = molecular target: CYP2E1 relative to CYP2A6 (Homo sapiens (Human), UniProt P05181); assay: as above; format: biochemical
[3] = molecular target: CYP2D6 relative to CYP2A6 (Homo sapiens (Human), UniProt P10635); assay: CYP2D6 Vivid blue substrate O-dealkylation inhibition; format: biochemical; details: recombinant CYP2D6 BACULOSOMES, pH 8, probe Vivid blue substrate (10 μM), O-dealkylation
[4] = molecular target: CYP2D6 (Homo sapiens (Human), UniProt P10635); assay: as above; format: biochemical
[5] = molecular target: CYP2C9 (Homo sapiens (Human), UniProt P11712); assay: CYP2C9 Vivid blue substrate O-dealkylation inhibition; format: biochemical
[6] = molecular target: CYP2C9 relative to CYP2A6 (Homo sapiens (Human), UniProt P11712); assay: as above; format: biochemical
[7] = molecular target: CYP2C19 relative to CYP2A6 (Homo sapiens (Human), UniProt P33261); assay: CYP2C19 Vivid blue substrate O-dealkylation inhibition; format: biochemical
[8] = molecular target: CYP2C19 (Homo sapiens (Human), UniProt P33261); assay: as above; format: biochemical
[9] = molecular target: CYP3A4 relative to CYP2A6 (Homo sapiens (Human), UniProt P08684); assay: in vitro; details: human; for selectivity ratio at 30 min: pH 7.5
Method: (§1) To gain insight into the selectivity of the synthetic compounds, nicotine, nicotine related alkaloids and nicotine metabolites for inhibition of other CYPs, we examined the major CYP present in human liver (i.e., CYP 3A4). […] A typical incubation mixture ([…] ), 0.5 mM NADP^+, 2.0 mM G6P, 1 U of G6P dehydrogenase, […] inhibitor was added last as to minimize interaction with the protein. After mixing on ice, the reaction was initiated by the addition of substrate and incubated at 37° C. with shaking in air. Organic extracts were injected onto a Hitachi L-7100 system equipped with a Hitachi L-7400 UV detector. Separations were done with an Altex Ultrasphere ODS (4.6 mm×250 mm, 5 μm) column. The analytes were eluted with an isocratic solvent system consisting of water/acetonitrile/methanol (30:10:60, v/v/v) at a flow rate of 1.0 mL/min. […] Quantification of substrate and metabolite was determined from peak areas of the chromatogram and comparison with standard curves. IC50 values were determined as described below.
(§2) To measure CYP3A4 activity, testosterone 6-hydroxylation was determined.

[10] = molecular target: CYP3A4 (Homo sapiens (Human), UniProt P08684); assay: in vitro
Method: as §1, §2

[11] = molecular target: CYP2B6 relative to CYP2A6 (Homo sapiens (Human), UniProt P20813); assay: CYP2B6 Vivid blue substrate O-dealkylation inhibition; format: biochemical
[12] = molecular target: CYP2B6 (Homo sapiens (Human), UniProt P20813); assay: as above; format: biochemical
[13] = molecular target: T1, human CYP2A6 (Homo sapiens (Human), UniProt P11509); assay: CYP2A6 mediated coumarin 7-hydroxylation inhibition
[14] = Human liver microsome stability assay; details: human, human liver microsomes, pH 7.4
[15] = Mouse liver microsome stability assay; details: mouse, mouse liver microsomes, pH 7.4
Method: The residue was reconstituted in methanol (200 μL), centrifuged at 13,000 rpm for 5 min and the supernatant was analyzed by high-performance liquid chromatography with an Axxi-chrom (straight-phase) silica column (4.6 mm×250 mm, 5 μm) or with a Supelco (reverse-phase) HS F5 pentafluorophenyl column (4.6 mm×250 mm, 5 μm).

[16] = molecular target: P450 2A6dH (Homo sapiens (Human), UniProt P11509, INS494HHHH)
Method: Subsequently, test compound (in 100% ethanol, 10 μM) was added to both the cuvettes. The maximal ethanol concentration used was 2%. The difference spectra were obtained after the system reached equilibrium (3 min). All spectra were recorded at 25° C.

[17] = molecular target: T1, human CYP2A6
[18] = molecular target: mouse CYP2A5 (Mus musculus (Mouse), UniProt P20852); assay: Inhibition of mouse CYP2A5; format: biochemical; details: read-out: IC50 mCYP2A5
[19] = molecular target: CYP2A13 (Homo sapiens (Human), UniProt Q16696); assay: Inhibition of human CYP2A13; details: for inhibition at 1 µM: human
[20] = insect cell microsomes expressing CYP2E1, 0.2M potassium phosphate buffer, mean of at least 3 determinations ± SD, read-out: IC50 ± SD 2E1
[21] = human CYP2D6 versus human CYP2A6, read-out: Selectivity ratio (IC50 CYPX/IC50 CYP2A6) 2D6/2A6
[22] = insect cell microsomes expressing CYP2D6, 0.2M potassium phosphate buffer, mean of at least 3 determinations ± SD, read-out: IC50 ± SD 2D6
[23] = insect cell microsomes expressing CYP2C9, 0.2M potassium phosphate buffer, mean of at least 3 determinations ± SD, read-out: IC50 ± SD 2C9
[24] = recombinant CYP2C9 BACULOSOMES, pH 8, probe Vivid blue substrate (10 μM), O-dealkylation, human CYP2C9 versus human CYP2A6, read-out: Selectivity ratio (IC50 CYPX/IC50 CYP2A6) 2C9/2A6
[25] = recombinant CYP2C19 BACULOSOMES, pH 8, probe Vivid blue substrate (10 μM), O-dealkylation, human CYP2C19 versus human CYP2A6, read-out: Selectivity ratio (IC50 CYPX/IC50 CYP2A6) 2C19/2A6
[26] = insect cell microsomes expressing CYP2C19, 0.2M potassium phosphate buffer, mean of at least 3 determinations ± SD, read-out: IC50 ± SD 2C19
[27] = recombinant CYP2B6 BACULOSOMES, pH 8, probe Vivid blue substrate (5 μM), O-dealkylation, human CYP2B6 versus human CYP2A6, read-out: Selectivity ratio (IC50 CYPX/IC50 CYP2A6) 2B6/2A6
[28] = insect cell microsomes expressing CYP2B6, 0.2M potassium phosphate buffer, mean of at least 3 determinations ± SD, read-out: IC50 ± SD 2B6
[29] = coumarin 7-hydroxylation, apparent Ki from IC50 by Cheng-Prusoff
[30] = read-out: IC50 ± SD 2A6, insect cell microsomes expressing CYP2A6, 0.1M Tris buffer, mean of at least 3 determinations ± SD
[31] = human, read-out: 2D6/2A6 selectivity ratio (IC50 CYPX/IC50 CYP2A6)
[32] = human, recombinant CYP2C19 BACULOSOMES, pH 8, probe Vivid blue substrate (10 μM), O-dealkylation, read-out: 2C19/2A6 selectivity ratio (IC50 CYPX/IC50 CYP2A6)
[33] = recombinant CYP2E1 BACULOSOMES, pH 8, probe Vivid blue substrate (10 μM), O-dealkylation, human CYP2E1 versus human CYP2A6, read-out: Selectivity ratio (IC50 CYPX/IC50 CYP2A6) 2E1/2A6
[34] = human, pH 8, 2C9/2A6 selectivity ratio (IC50 CYPX/IC50 CYP2A6)
[35] = human, recombinant CYP2B6 BACULOSOMES, pH 8, probe Vivid blue substrate (5 μM), O-dealkylation, read-out: 2B6/2A6 selectivity ratio (IC50 CYPX/IC50 CYP2A6)

Sequence of CYP2C9 relative to CYP2A6 (P11712 whole entry): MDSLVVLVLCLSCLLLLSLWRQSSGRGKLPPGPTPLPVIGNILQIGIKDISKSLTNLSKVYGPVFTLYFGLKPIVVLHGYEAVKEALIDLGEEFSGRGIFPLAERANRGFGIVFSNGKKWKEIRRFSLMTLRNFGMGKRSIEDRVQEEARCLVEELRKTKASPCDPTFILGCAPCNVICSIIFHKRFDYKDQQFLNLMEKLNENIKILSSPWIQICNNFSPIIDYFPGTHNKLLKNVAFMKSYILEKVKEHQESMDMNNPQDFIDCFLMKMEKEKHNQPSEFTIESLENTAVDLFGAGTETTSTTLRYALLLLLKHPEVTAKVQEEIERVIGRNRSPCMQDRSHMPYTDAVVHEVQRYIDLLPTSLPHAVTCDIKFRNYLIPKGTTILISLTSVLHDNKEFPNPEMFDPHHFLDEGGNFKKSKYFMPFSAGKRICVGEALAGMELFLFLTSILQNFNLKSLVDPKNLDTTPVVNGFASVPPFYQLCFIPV
Sequence of CYP2C9 (P11712 whole entry): as above
Sequence of CYP2E1 relative to CYP2A6 (P05181 whole entry): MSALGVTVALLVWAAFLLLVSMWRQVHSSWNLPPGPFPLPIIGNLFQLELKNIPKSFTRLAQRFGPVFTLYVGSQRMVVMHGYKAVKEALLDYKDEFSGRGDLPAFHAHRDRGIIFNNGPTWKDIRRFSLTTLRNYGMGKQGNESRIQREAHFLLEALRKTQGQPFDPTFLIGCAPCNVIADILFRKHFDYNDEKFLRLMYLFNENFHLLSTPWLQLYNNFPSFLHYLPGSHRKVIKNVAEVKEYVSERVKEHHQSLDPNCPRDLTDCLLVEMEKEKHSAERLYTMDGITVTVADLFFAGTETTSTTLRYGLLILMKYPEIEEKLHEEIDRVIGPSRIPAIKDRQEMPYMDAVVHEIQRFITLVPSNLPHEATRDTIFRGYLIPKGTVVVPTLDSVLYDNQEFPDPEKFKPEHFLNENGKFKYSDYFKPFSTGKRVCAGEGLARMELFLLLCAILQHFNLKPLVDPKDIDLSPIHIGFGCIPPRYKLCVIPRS
Sequence of CYP2E1 (P05181 whole entry): as above
Sequence of CYP2D6 (P10635 whole entry): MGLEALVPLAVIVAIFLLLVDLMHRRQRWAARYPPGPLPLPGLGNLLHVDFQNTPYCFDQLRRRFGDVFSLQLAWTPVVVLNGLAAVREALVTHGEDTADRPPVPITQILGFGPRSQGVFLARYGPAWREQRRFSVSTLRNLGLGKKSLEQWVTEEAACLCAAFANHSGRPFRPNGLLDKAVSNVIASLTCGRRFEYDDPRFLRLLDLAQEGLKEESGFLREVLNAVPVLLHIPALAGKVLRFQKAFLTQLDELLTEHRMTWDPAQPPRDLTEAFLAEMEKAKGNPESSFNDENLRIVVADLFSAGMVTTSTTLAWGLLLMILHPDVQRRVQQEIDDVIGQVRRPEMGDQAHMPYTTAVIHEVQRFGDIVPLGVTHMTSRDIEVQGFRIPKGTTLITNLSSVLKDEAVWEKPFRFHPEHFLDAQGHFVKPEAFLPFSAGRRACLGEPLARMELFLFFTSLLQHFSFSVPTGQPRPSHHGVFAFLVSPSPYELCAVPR
Sequence of CYP2D6 relative to CYP2A6 (P10635 whole entry): as above
Sequence of mouse CYP2A5 (P20852 whole entry): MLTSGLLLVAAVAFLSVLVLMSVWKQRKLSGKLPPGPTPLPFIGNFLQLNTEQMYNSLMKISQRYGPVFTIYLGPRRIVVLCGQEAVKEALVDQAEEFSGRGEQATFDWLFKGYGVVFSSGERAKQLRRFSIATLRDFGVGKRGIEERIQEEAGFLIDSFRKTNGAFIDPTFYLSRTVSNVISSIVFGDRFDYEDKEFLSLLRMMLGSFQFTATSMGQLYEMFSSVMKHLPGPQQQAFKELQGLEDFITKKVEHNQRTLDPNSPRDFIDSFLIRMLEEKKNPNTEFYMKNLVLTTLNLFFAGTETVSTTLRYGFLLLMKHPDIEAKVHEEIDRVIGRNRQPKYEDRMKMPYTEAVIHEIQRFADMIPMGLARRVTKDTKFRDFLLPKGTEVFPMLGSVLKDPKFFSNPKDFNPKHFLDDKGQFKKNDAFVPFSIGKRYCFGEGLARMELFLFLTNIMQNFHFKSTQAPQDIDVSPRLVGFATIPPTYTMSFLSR
T1 sequence (P11509 whole entry): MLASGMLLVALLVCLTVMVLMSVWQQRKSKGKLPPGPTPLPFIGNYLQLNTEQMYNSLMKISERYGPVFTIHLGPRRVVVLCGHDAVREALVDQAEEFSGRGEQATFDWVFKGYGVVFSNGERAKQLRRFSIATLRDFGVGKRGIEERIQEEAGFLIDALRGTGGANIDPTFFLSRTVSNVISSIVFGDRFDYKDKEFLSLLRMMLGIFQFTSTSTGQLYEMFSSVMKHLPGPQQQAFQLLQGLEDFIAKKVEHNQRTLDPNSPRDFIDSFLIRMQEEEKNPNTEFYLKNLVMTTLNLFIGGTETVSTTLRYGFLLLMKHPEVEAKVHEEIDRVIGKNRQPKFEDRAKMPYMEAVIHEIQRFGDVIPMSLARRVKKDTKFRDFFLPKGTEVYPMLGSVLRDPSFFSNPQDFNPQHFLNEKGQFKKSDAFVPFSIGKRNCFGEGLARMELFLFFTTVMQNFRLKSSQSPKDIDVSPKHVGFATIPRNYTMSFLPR
Sequence of CYP3A4 relative to CYP2A6 (P08684 whole entry): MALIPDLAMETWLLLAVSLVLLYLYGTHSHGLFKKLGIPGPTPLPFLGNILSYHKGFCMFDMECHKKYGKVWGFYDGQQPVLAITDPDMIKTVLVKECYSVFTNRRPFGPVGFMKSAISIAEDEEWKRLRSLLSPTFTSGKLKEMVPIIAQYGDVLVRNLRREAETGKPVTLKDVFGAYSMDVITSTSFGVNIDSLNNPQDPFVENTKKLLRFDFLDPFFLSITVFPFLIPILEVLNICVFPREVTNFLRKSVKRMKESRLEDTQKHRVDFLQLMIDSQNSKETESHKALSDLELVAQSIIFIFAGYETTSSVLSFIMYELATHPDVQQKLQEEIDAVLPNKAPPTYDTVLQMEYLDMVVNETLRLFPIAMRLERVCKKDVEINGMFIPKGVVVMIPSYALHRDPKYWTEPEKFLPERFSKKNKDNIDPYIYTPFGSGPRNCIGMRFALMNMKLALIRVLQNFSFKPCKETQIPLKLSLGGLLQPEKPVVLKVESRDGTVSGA
Sequence of CYP3A4 (P08684 whole entry): as above
Sequence of CYP2A13 (Q16696 whole entry): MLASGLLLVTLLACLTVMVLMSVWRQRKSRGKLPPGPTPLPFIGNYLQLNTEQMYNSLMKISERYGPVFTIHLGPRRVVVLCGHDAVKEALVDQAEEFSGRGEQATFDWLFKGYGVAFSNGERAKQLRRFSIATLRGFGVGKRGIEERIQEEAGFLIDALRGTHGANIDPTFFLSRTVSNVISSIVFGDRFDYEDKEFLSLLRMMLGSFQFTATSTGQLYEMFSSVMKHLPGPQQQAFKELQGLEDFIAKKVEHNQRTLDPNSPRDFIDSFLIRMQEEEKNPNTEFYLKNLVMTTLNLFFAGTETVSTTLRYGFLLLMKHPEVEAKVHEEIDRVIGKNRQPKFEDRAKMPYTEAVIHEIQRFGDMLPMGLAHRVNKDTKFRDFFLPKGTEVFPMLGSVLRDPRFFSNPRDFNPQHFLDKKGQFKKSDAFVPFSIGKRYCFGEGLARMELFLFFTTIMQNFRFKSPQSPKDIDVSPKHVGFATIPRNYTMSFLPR
Sequence of CYP2C19 (P33261 whole entry): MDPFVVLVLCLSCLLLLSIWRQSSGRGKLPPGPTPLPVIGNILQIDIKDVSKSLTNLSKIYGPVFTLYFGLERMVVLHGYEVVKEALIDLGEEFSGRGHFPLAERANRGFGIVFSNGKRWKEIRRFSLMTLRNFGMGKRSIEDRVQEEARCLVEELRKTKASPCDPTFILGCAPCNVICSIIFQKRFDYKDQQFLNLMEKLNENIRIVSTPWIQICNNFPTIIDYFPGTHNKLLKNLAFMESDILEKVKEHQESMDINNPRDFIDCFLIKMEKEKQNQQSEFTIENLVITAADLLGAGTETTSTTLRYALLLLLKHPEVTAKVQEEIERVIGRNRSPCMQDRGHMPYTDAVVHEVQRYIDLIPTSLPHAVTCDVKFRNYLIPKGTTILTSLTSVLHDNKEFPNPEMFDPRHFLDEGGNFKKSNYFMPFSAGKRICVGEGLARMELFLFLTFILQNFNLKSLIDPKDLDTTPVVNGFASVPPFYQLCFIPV

c1ccc(Cn2cnc(-c3cccnc3)c2)cc1 [Compound 60, 3-(1-benzyl-1H-imidazol-4-yl)pyridine]
IC50 [1, 20]: 0.58 ± 0.1 µM | selectivity ratio at 40 min ([2]; human, pH 8): 0.4 | selectivity ratio at 40 min [3, 21]: 26 | IC50 [4, 22]: 36.3 ± 4.4 µM | IC50 [5, 23]: 26.9 ± 2.9 µM | selectivity ratio at 40 min [6, 24]: 19 | selectivity ratio at 40 min [7, 25]: 9 | IC50 [8, 26]: 12.1 ± 0.6 µM | selectivity ratio at 30 min [9]: > 54 | IC50 ([10]; microsomes, pH 7.5): 75.1 ± 13.9 µM | selectivity ratio at 40 min [11, 27]: 4 | IC50 [12, 28]: 5.3 ± 0.9 µM | Ki [13, 29]: 0.23 ± 0.03 µM | IC50 [13, 30]: 1.4 ± 0.2 µM

Cc1ccsc1-c1cccnc1 [Compound 4]
half-life at 40 μM [14]: 32 min | half-life at 40 μM [15]: 41 min

Cn1cnc(-c2cccnc2)c1 [Compound 5]
selectivity ratio at 40 min ([2]; human, pH 8): 5 | selectivity ratio at 40 min [3, 31]: 272 | binding type [16]: Type II | λmax [16]: 429 nm | λmin [16]: 409 nm | IC50 [17]: 0.75 ± 0.1 µM | IC50 ([17]; human, pH 7.5): 0.748 ± 0.1 µM | half-life at 40 μM [15]: 481 min | selectivity ratio at 40 min ([6]; human, recombinant CYP2C9 BACULOSOMES, pH 8, probe Vivid blue substrate (10 μM), O-dealkylation, read-out: 2C9/2A6 selectivity ratio (IC50 CYPX/IC50 CYP2A6)): 106 | selectivity ratio at 40 min [7, 32]: 163 | selectivity ratio at 30 min [9]: 349 | IC50 [10]: 262 ± 63 µM | selectivity ratio at 40 min ([11]; human, pH 8): 195

c1cncc(-c2ccc(CNCc3ccc(-c4cccnc4)s3)s2)c1 [Compound 38b, bis((5-(pyridin-3-yl)thiophen-2-yl)methyl)amine]
IC50 [1, 20]: 0.86 ± 0.24 µM | selectivity ratio at 40 min [2, 33]: 0.12 | selectivity ratio at 40 min [3, 31]: 1.7 | IC50 [4, 22]: 12.9 ± 1.9 µM | IC50 ([5]; human, pH 8): 0.71 ± 0.75 µM | selectivity ratio [6, 34]: 0.1 | selectivity ratio ([6]; human, pH 8, Selectivity ratio (IC50 CYPX/IC50 CYP2A6) 2C9/2A6): 0.1 | selectivity ratio at 40 min [7, 32]: 0.03 | IC50 [8, 26]: 0.21 ± 0.03 µM | selectivity ratio at 30 min [9]: > 54 | selectivity ratio at 40 min [11, 35]: 1.2 | IC50 [12, 28]: 9 ± 0.8 µM | Ki [13, 29]: 1.2 ± 0.2 µM | IC50 [13, 30]: 7.4 ± 1.3 µM | fold decrease of CYP2A6 inhibitor potency ([13]; relative to compound 38a): 60 fold

Cc1cscc1-c1cccnc1 [TD-I-103]
IC50 [18]: 0.75 µM | IC50 ([17]; human, pH 7.5): 1.85 ± 0.5 µM

NCc1ccc(-c2cccnc2)o1 [Compound 39a, (5-(Pyridin-3-yl)furan-2-yl)methanamine]
IC50 [1, 20]: 172 ± 52 µM | selectivity ratio at 40 min ([2]; human, recombinant CYP2E1 BACULOSOMES, pH 8, probe Vivid blue substrate (10 μM), O-dealkylation, read-out: 2E1/2A6 selectivity ratio (IC50 CYPX/IC50 CYP2A6)): 637 | selectivity ratio at 40 min ([3]; human, human CYP2D6 versus human CYP2A6, read-out: Selectivity ratio (IC50 CYPX/IC50 CYP2A6) 2D6/2A6): 41 | selectivity ratio at 40 min [3, 31]: 41 | IC50 [4, 22]: 11.3 ± 2.6 µM | binding type [16]: type 2 | IC50 ([17]; human, pH 7.5): 0.27 ± 0.02 µM | Ki ([17]; human, pH 7.5): 0.04 ± 0.004 µM | IC50 [5, 23]: 11.7 ± 2.2 µM | selectivity ratio at 40 min [6, 34]: 41 | selectivity ratio at 40 min ([6]; human, pH 8, human CYP2C9 versus human CYP2A6, read-out: Selectivity ratio (IC50 CYPX/IC50 CYP2A6) 2C9/2A6): 41 | selectivity ratio at 40 min ([7]; human, pH 8, 2C19/2A6 selectivity ratio (IC50 CYPX/IC50 CYP2A6)): 82 | selectivity ratio at 40 min ([7]; human, pH 8, human CYP2C19 versus human CYP2A6, read-out: Selectivity ratio (IC50 CYPX/IC50 CYP2A6) 2C19/2A6): 82 | IC50 [8, 26]: 22 ± 1.6 µM | selectivity ratio at 30 min [9]: 174 | selectivity ratio at 40 min [11, 35]: 707 | IC50 [12, 28]: 191 ± 24 µM

Nc1ccc(-c2cccnc2)s1 [Compound 57, 5-(Pyridin-3-yl)thiophen-2-amine]
IC50 [1, 20]: 31.1 ± 5.7 µM | selectivity ratio at 40 min [2, 33]: 8.9 | selectivity ratio at 40 min [3, 21]: 4.1 | IC50 [4, 22]: 14.4 ± 0.9 µM | IC50 [5, 23]: 2.1 ± 0.2 µM | selectivity ratio at 40 min [6, 24]: 0.6 | selectivity ratio at 40 min [7, 25]: 0.9 | IC50 [8, 26]: 3.2 ± 0.2 µM | selectivity ratio ([9]; pH 7.5, 3A4/2A6 selectivity ratio (IC50 CYPX/IC50 CYP2A6)): 2 | selectivity ratio ([9]; pH 7.5, Selectivity ratio (IC50 CYPX/IC50 CYP2A6) 3A4/2A6): 2 | IC50 ([10]; read-out: IC50 ± SD 3A4, human liver microsomes, 0.05M potassium phosphate buffer, pH 7.5, mean of at least 3 determinations ± SD): 6.3 ± 1.4 µM | selectivity ratio at 40 min [11, 27]: 1.9 | IC50 [12, 28]: 6.8 ± 0.8 µM | Ki [13, 29]: 0.59 ± 0.05 µM | Ki ([13]; coumarin 7-hydroxylation, unit inferred): 0.59 ± 0.05 µM | IC50 [13, 30]: 3.5 ± 0.3 µM

Cc1ccsc1-c1cccnc1 [TD-II-025]
IC50 [19]: ~1 µM | inhibition at 1 µM [19]: 51% | IC50 [18]: 0.3 µM

NCc1ccc(-c2cccnc2)o1 [Compound 2a]
2E1/2A6 selectivity ratio (IC50 CYPX/IC50 CYP2A6) [1]: 637 | IC50 ([1]; Table 4, unit inferred, read-out: 2E1 IC50 ± SD): 172 ± 52 µM | half-life at 40 μM [14]: 37 min | 2D6/2A6 selectivity ratio (IC50 CYPX/IC50 CYP2A6) [4]: 42 | IC50 ([4]; Table 4, unit inferred, read-out: 2D6 IC50 ± SD): 11.3 ± 2.6 µM | binding type [16]: Type II | λmax [16]: 428 nm | λmin [16]: 409 nm | IC50 [17]: 0.27 ± 0.02 µM | half-life at 40 μM [15]: 37 min | IC50 ([5]; Table 4, unit inferred, read-out: 2C9 IC50 ± SD): 11.7 ± 2.2 µM | IC50 ([8]; Table 4, unit inferred, read-out: 2C19 IC50 ± SD): 22 ± 1.6 µM | IC50 [10]: 47.1 ± 18.1 µM | 2B6/2A6 selectivity ratio (IC50 CYPX/IC50 CYP2A6) [12]: 707 | IC50 ([12]; Table 4, unit inferred, read-out: 2B6 IC50 ± SD): 191 ± 24 µM

NCc1ccc(-c2cccnc2)s1 [TD-II-039]
IC50 [18]: 0.5 µM

CNCc1ccc(-c2cccnc2)s1 [TD-IV-073 30]
inhibition at 1 µM [19]: 17% | IC50 [18]: 0.9 µM | IC50 ([13]; read-out: CYP2A6 IC50, coumarin 7-hydroxylation): 1.1 ± 0.13 µM
